Assay results taken from the supplement of paper PMC4862054.

Tests used:
Conditions in all cases: incubation time: 72 h
MDA-MB-436 = experiment: normalised viability (% of control), CellTiter-Blue; higher = more viable cells (about 100 = DMSO control)
Procedure: (§1)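 DSRT, CellTiter-Blue viability, 72 h incubation. Signal is normalised to DMSO and benzethonium chloride controls. Value is the normalised response at dose 3.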

BT-474 [1] = experiment: as above
Procedure: as §1

MDA-MB-453 = experiment: as above
Procedure: as §1

HCC1937 [2] = experiment: as above
Procedure: as §1

HCC1143 [3] = experiment: as above
Procedure: as §1

HDQ-P1 = experiment: as above
Procedure: as §1

MDA-MB-468 = experiment: as above
Procedure: as §1

HCC1599 = experiment: as above
Procedure: as §1

Hs578T [4] = experiment: as above
Procedure: as §1

SK-BR-3 [5] = experiment: as above
Procedure: as §1

CAL-148 [6] = experiment: as above
Procedure: as §1

CAL-120 = experiment: as above
Procedure: as §1

MFM-223 = experiment: as above
Procedure: as §1

DU-4475 [7] = experiment: as above
Procedure: as §1

BT-549 [8] = experiment: as above
Procedure: as §1

CAL-85-1 [9] = experiment: as above
Procedure: as §1

MDA-MB-231 [10] = experiment: as above
Procedure: as §1

CAL-51 = experiment: as above
Procedure: as §1

BT-474 [11] = experiment: drug sensitivity score (DSS), CellTiter-Glo (DSS (AUC-based score)); higher = stronger drug effect (viability inhibition or cytotoxicity); extreme values may be limits of the assay
Summary of the method: (§2)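 Breast cancer cell lines (20 µl suspension) were seeded into 384-well plates holding compound at 5 concentrations in 10-fold steps over a compound-specific 10,000-fold range, then incubated 72 h. CellTox Green fluorescence (485/520 nm) was read first, then CellTiter-Glo luminescence after 10 min at room temperature. Each plate was normalised to 0.1 % DMSO and a positive kill control. The drug sensitivity score was calculated from the area under the fitted dose-response curve.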

HCC1937 [12] = experiment: as above
Summary of the method: as §2

HCC1143 [13] = experiment: as above
Summary of the method: as §2

MCF-10A = experiment: as above
Summary of the method: as §2

Hs578T [14] = experiment: as above
Summary of the method: as §2

SK-BR-3 [15] = experiment: as above
Summary of the method: as §2

CAL-148 [16] = experiment: as above
Summary of the method: as §2

DU-4475 [17] = experiment: as above
Summary of the method: as §2

BT-549 [18] = experiment: as above
Summary of the method: as §2

CAL-85-1 [19] = experiment: as above
Summary of the method: as §2

MDA-MB-231 [20] = experiment: as above
Summary of the method: as §2

Structure (SMILES)	normalised viability (MDA-MB-436; 100 nM) [%]	normalised viability (BT-474 [1]; 100 nM) [%]	normalised viability (MDA-MB-453; 10 nM) [%]	normalised viability (HCC1937 [2]; 100 nM) [%]	normalised viability (HCC1143 [3]; 100 nM) [%]	normalised viability (HDQ-P1; 10 nM) [%]	normalised viability (MDA-MB-468; 100 nM) [%]	normalised viability (HCC1599; 100 nM) [%]	normalised viability (Hs578T [4]; 100 nM) [%]	drug sensitivity score (BT-474 [11])	drug sensitivity score (HCC1937 [12])	drug sensitivity score (HCC1143 [13])	drug sensitivity score (MCF-10A)	drug sensitivity score (Hs578T [14])	drug sensitivity score (SK-BR-3 [15])	drug sensitivity score (CAL-148 [16])	drug sensitivity score (DU-4475 [17])	drug sensitivity score (BT-549 [18])	drug sensitivity score (CAL-85-1 [19])	drug sensitivity score (MDA-MB-231 [20])	other results
Cn1nnc2c(C(N)=O)ncn2c1=O [Temozolomide]	94.5	98.2	101	100	85.4	92.3	95.7	115	81.3	0	0	0	0	0	0	0	0	0	0	0	normalised viability (SK-BR-3 [5]; 100 nM): 96.2%; normalised viability (CAL-148 [6]; 10 nM): 90.4%; normalised viability (CAL-120; 100 nM): 95.9%; normalised viability (MFM-223; 100 nM): 105%; normalised viability (DU-4475 [7]; 10 nM): 124%; normalised viability (BT-549 [8]; 100 nM): 83.6%; normalised viability (CAL-85-1 [9]; 10 nM): 102%; normalised viability (MDA-MB-231 [10]; 100 nM): 104%; normalised viability (CAL-51; 10 nM): 98.5%
CC[C@@H]1C(=O)N(C)c2cnc(Nc3ccc(C(=O)N[C@H]4CC[C@H](N5CCN(CC6CC6)CC5)CC4)cc3OC)nc2N1C(C)C [Volasertib]										8.07	3.79	11.2	8.92	9.68	19.9	4.27	8.16	15.1	12.6	9.58	normalised viability (MDA-MB-436; 10 nM): 88.6%; normalised viability (BT-474 [1]; 10 nM): 55.8%; normalised viability (MDA-MB-453; 1 nM): 104%; normalised viability (HCC1937 [2]; 10 nM): 70.6%; normalised viability (HCC1143 [3]; 10 nM): 77.4%; normalised viability (HDQ-P1; 1 nM): 103%; normalised viability (MDA-MB-468; 10 nM): 83.8%; normalised viability (HCC1599; 10 nM): 78.5%; normalised viability (Hs578T [4]; 10 nM): 97.3%; normalised viability (SK-BR-3 [5]; 10 nM): 53.6%; normalised viability (CAL-148 [6]; 1 nM): 98.3%; normalised viability (CAL-120; 10 nM): 48.5%; normalised viability (MFM-223; 10 nM): 51.1%; normalised viability (DU-4475 [7]; 1 nM): 124%; normalised viability (BT-549 [8]; 10 nM): 94.5%; normalised viability (CAL-85-1 [9]; 1 nM): 95.3%; normalised viability (MDA-MB-231 [10]; 10 nM): 92.8%; normalised viability (CAL-51; 1 nM): 102%
COc1cc2c(N3CCN(C(=O)Nc4ccc(OC(C)C)cc4)CC3)ncnc2cc1OCCCN1CCCCC1 [Tandutinib]										0	0	0	0	0	0	0	0	0	0	0	normalised viability (MDA-MB-436; 10 nM): 102%; normalised viability (BT-474 [1]; 10 nM): 123%; normalised viability (MDA-MB-453; 1 nM): 110%; normalised viability (HCC1937 [2]; 10 nM): 98.4%; normalised viability (HCC1143 [3]; 10 nM): 125%; normalised viability (HDQ-P1; 1 nM): 130%; normalised viability (MDA-MB-468; 10 nM): 108%; normalised viability (HCC1599; 10 nM): 101%; normalised viability (Hs578T [4]; 10 nM): 94.5%; normalised viability (SK-BR-3 [5]; 10 nM): 84.3%; normalised viability (CAL-148 [6]; 1 nM): 98.1%; normalised viability (CAL-120; 10 nM): 110%; normalised viability (MFM-223; 10 nM): 102%; normalised viability (DU-4475 [7]; 1 nM): 107%; normalised viability (BT-549 [8]; 10 nM): 106%; normalised viability (CAL-85-1 [9]; 1 nM): 104%; normalised viability (MDA-MB-231 [10]; 10 nM): 108%; normalised viability (CAL-51; 1 nM): 109%
NC(=O)NO [Hydroxyurea]										0	0	0	0	0	0	0	0	1.87	0	0	normalised viability (MDA-MB-436; 1000 nM): 106%; normalised viability (BT-474 [1]; 1000 nM): 115%; normalised viability (MDA-MB-453; 100 nM): 101%; normalised viability (HCC1937 [2]; 1000 nM): 91.4%; normalised viability (HCC1143 [3]; 1000 nM): 106%; normalised viability (HDQ-P1; 100 nM): 108%; normalised viability (MDA-MB-468; 1000 nM): 109%; normalised viability (HCC1599; 1000 nM): 117%; normalised viability (Hs578T [4]; 1000 nM): 98.2%; normalised viability (SK-BR-3 [5]; 1000 nM): 101%; normalised viability (CAL-148 [6]; 100 nM): 96.8%; normalised viability (CAL-120; 1000 nM): 103%; normalised viability (MFM-223; 1000 nM): 96.9%; normalised viability (DU-4475 [7]; 100 nM): 119%; normalised viability (BT-549 [8]; 1000 nM): 103%; normalised viability (CAL-85-1 [9]; 100 nM): 100%; normalised viability (MDA-MB-231 [10]; 1000 nM): 98.2%; normalised viability (CAL-51; 100 nM): 111%
C[C@@H](C(=O)O)c1ccc(-c2ccccc2)c(F)c1 [Tarenflurbil]	122	109	99.5	109	98.8	91.8	104	103	72.9	0	0	0	0	0	0	0	0	0	0	0	normalised viability (SK-BR-3 [5]; 100 nM): 84.8%; normalised viability (CAL-148 [6]; 10 nM): 90.2%; normalised viability (CAL-120; 100 nM): 98.6%; normalised viability (MFM-223; 100 nM): 101%; normalised viability (DU-4475 [7]; 10 nM): 114%; normalised viability (BT-549 [8]; 100 nM): 103%; normalised viability (CAL-85-1 [9]; 10 nM): 91.5%; normalised viability (MDA-MB-231 [10]; 100 nM): 90.8%; normalised viability (CAL-51; 10 nM): 118%
Cc1c(N)nc([C@H](CC(N)=O)NC[C@H](N)C(N)=O)nc1C(=O)N[C@H](C(=O)N[C@H](C)[C@@H](O)[C@H](C)C(=O)N[C@H](C(=O)NCCc1nc(-c2nc(C(=O)NCCC[S+](C)C)cs2)cs1)[C@@H](C)O)[C@@H](OC1OC(CO)C(O)C(O)C1OC1OC(CO)C(O)C(OC(N)=O)C1O)c1cnc[nH]1 (some centres undefined) [Bleomycin]	88.2	96	102	91.4	74.7	82.3	86.5	134	68.7	0	2.76	4.08	0	0	2.43	4.27	0	8.65	0	0	normalised viability (SK-BR-3 [5]; 100 nM): 90.8%; normalised viability (CAL-148 [6]; 10 nM): 77.6%; normalised viability (CAL-120; 100 nM): 86.3%; normalised viability (MFM-223; 100 nM): 99.5%; normalised viability (DU-4475 [7]; 10 nM): 120%; normalised viability (BT-549 [8]; 100 nM): 61.4%; normalised viability (CAL-85-1 [9]; 10 nM): 107%; normalised viability (MDA-MB-231 [10]; 100 nM): 81.8%; normalised viability (CAL-51; 10 nM): 98.2%
